Earlier results on 36 molecules are cited in PMC11187573, “Identification of SARS-CoV-2 Mpro inhibitors through deep reinforcement learning for de novo drug design and computational chemistry approaches” (RSC Medicinal Chemistry, 2024).

Read-outs that look alike come from different tables or passages of the source.

For this series, the system named is SARS, SARS-CoV-2 and MERS Mpro. The settings on record: cited from earlier work.
[1] abbreviates: Origin COVID_Moonshot, ref COVID Moonshot.

For `COCCCOc1ccnc(C[S+]([O-])c2nc3ccccc3[nH]2)c1C` (stereo not drawn) [CHEMBL1200930, Cc(c(C[S+](c1nc(cccc2)c2[n-]1)[O-])ncc1)c1OCCCOC], the IC50 (Origin ChEMBL, ref ChEMBL) is 740 nM.

As for `C[C@@](Cc1ccc(O)c(O)c1)(NN)C(=O)O` [CHEMBL1201236, C[C@](Cc(cc1)cc(O)c1O)(C(O)=O)NN], for the setting “Origin ChEMBL, ref ChEMBL”, the IC50 was 3550 nM.

With `Oc1cc2c(cc1O)[C@H]1c3ccccc3CN[C@@H]1CC2` [CHEMBL1256832, Oc(cc(CC[C@H]([C@@H]12)NCc3c2cccc3)c1c1)c1O], the IC50 (Origin ChEMBL, ref ChEMBL) is 1050 nM.

Turning to `O=C1C(Cl)=C(N2CCOCC2)C(=O)N1c1ccc(Cl)c(Cl)c1` [CHEMBL1271993, O=C(C(N1CCOCC1)=C(C1=O)Cl)N1c(cc1)cc(Cl)c1Cl], the IC50 (Origin ChEMBL, ref ChEMBL) is 2840 nM.

As for `CCC(=O)OCN1C(=O)C=CC1=O` [CHEMBL1374426, CCC(OCN(C(C=C1)=O)C1=O)=O], the IC50 (Origin ChEMBL, ref ChEMBL) was 290 nM.

Turning to `CCOc1cc(C(Nc2cc(C)ccn2)c2ccc3cccnc3c2O)ccc1OC` (stereo not drawn) [CHEMBL1397952, CCOc(cc(C(c(ccc1cccnc11)c1O)Nc1nccc(C)c1)cc1)c1OC], under “Origin ChEMBL, ref ChEMBL”, the IC50 is 270 nM.

In the case of `CCN1CCN(C(c2ccc(C(F)(F)F)cc2)c2ccc3cccnc3c2O)CC1` (stereo not drawn) [CHEMBL1422849, CCN(CC1)CCN1C(c1ccc(C(F)(F)F)cc1)c(ccc1cccnc11)c1O], where the note is “Origin ChEMBL, ref ChEMBL”, the IC50 was 150 nM.

On to `O=C1C=CC(=O)C2=C1C1c3ccccc3C2c2ccccc21` [CHEMBL1474701, O=C(C=C1)C(C(c2c(C34)cccc2)c2c4cccc2)=C3C1=O], for which the IC50 (Origin ChEMBL, ref ChEMBL) was 240 nM.

Consider `COc1ccc2[nH]c([S+]([O-])Cc3ncc(C)c(OC)c3C)nc2n1` (stereo not drawn) [CHEMBL1475252, Cc1cnc(C[S+](c2nc(nc(cc3)OC)c3[nH]2)[O-])c(C)c1OC], for which the IC50 (Origin ChEMBL, ref ChEMBL) is 970 nM.

On to `O=C(c1ccc(/C=C/c2n[nH]c3ccccc23)cc1)N1CCNCC1` [CHEMBL1908397, O=C(c1ccc(/C=C/c2n[nH]c3c2cccc3)cc1)N1CCNCC1], for which the IC50 (Origin ChEMBL, ref ChEMBL) is 3600 nM.

Take `COc1cccc(C(=O)CCN[C@@H](C)[C@H](O)c2ccccc2)c1` [CHEMBL2354521, C[C@@H]([C@@H](c1ccccc1)O)NCCC(c1cc(OC)ccc1)=O]: the IC50 (Origin ChEMBL, ref ChEMBL) was 2350 nM.

As for `O=C1c2c(O)cc(O)cc2O[C@H](c2cc(O)c(O)c(O)c2)[C@H]1O` [CHEMBL3348861, O[C@H]([C@@H](c(cc1O)cc(O)c1O)Oc1c2c(O)cc(O)c1)C2=O], the IC50 (Origin ChEMBL, ref ChEMBL) was 180 nM.

For `Oc1cc2c(cc1C(c1ccc(C(F)(F)F)cc1)N1CCOCC1)OCO2` (stereo not drawn) [CHEMBL3797437, Oc1c(C(c2ccc(C(F)(F)F)cc2)N2CCOCC2)cc2OCOc2c1], the IC50 (Origin ChEMBL, ref ChEMBL) was 540 nM.

With `CC=C1C(OC2OC(CO)C(O)C(O)C2O)OC=C(C(=O)OC)C1CC(=O)OCCc1ccc(O)c(O)c1` (stereo not drawn) [CHEMBL4303154, CC=C(C1CC(OCCc(cc2)cc(O)c2O)=O)C(OC(C(C2O)O)OC(CO)C2O)OC=C1C(OC)=O], under “Origin ChEMBL, ref ChEMBL”, the IC50 is 3380 nM.

For the molecule `C[C@@H]1O[C@@H](Oc2c(-c3cc(O)c(O)c(O)c3)oc3cc(O)cc(O)c3c2=O)[C@@H](O)[C@H](O)[C@H]1O` [CHEMBL4303331, C[C@@H]([C@@H]([C@H]([C@@H]1O)O)O)O[C@H]1OC1=C(c(cc2O)cc(O)c2O)Oc(cc(cc2O)O)c2C1=O], for the setting “Origin ChEMBL, ref ChEMBL”, the IC50 was 3660 nM.

Regarding `Oc1cc(CNC(=S)/C=C/c2cc(O)c(O)c(Br)c2)cc(O)c1O` [CHEMBL4303361, Oc1cc(CNC(/C=C/c(cc2O)cc(Br)c2O)=S)cc(O)c1O], the IC50 (Origin ChEMBL, ref ChEMBL) was 480 nM.

As to `Cc1ccccc1N(C)C(=O)c1ccc([S+]([O-])c2nccs2)c([N+](=O)[O-])c1` (stereo not drawn) [CHEMBL4303376, Cc(cccc1)c1N(C)C(c(cc1)cc([N+]([O-])=O)c1[S+](c1nccs1)[O-])=O], the IC50 (Origin ChEMBL, ref ChEMBL) was 1870 nM.

Regarding `C=C1C(=O)[C@]23[C@H](O)[C@H]1CC[C@@H]2[C@]12CO[C@]3(O)C[C@@H]1C(C)(C)CC[C@@H]2O` [CHEMBL4303503, CC(C)(CC1)[C@@H](C[C@@]([C@@]([C@@H]2O)([C@@H]3CC[C@H]2C2=C)C2=O)(O)OC2)[C@@]23[C@H]1O], the IC50 (Origin ChEMBL, ref ChEMBL) was 2570 nM.

As for `O=C1C=Cc2cc(Br)ccc2C1=O` [CHEMBL4303595, O=C(C=Cc1c2ccc(Br)c1)C2=O], for the setting “Origin ChEMBL, ref ChEMBL”, the IC50 is 100 nM.

Take `CCc1ccc(/C=C/C(=O)Nc2ccc(C(C)=O)cc2)o1` [CHEMBL4303618, CCc1ccc(/C=C/C(Nc(cc2)ccc2C(C)=O)=O)o1]: the IC50 (Origin ChEMBL, ref ChEMBL) is 4950 nM.

For the molecule `N#CSc1cc(SC#N)c(N)nc1N` [CHEMBL4303622, Nc(c(SC#N)c1)nc(N)c1SC#N], the IC50 (Origin ChEMBL, ref ChEMBL) is 1360 nM.

Regarding `CC(C)C[C@@H]1CN(C(=O)CCl)CCN1Cc1cccc(Cl)c1` [DAN-LON-a5fc619e-3, CC(C)C[C@H](C1)N(Cc2cccc(Cl)c2)CCN1C(CCl)=O], the IC50 under setting [1] is 784 nM.

Regarding `O=C(CCl)N1CC2CC1CN2Cc1cccc(Cl)c1` (stereo not drawn) [DAN-LON-a5fc619e-8, O=C(CCl)N1C(C2)CN(Cc3cccc(Cl)c3)C2C1], the IC50 under setting [1] was 2170 nM.

Take `CCNc1ncc(C#N)cc1CN1CCN(C(=O)CCl)CC1` [DAR-DIA-fb20be43-4, CCNc(nc1)c(CN(CC2)CCN2C(CCl)=O)cc1C#N]: under setting [1], the IC50 is 3220 nM.

For the molecule `N#Cc1cc(CN2CCN(C(=O)CCl)CC2)c2ccccc2c1` [DAR-DIA-fb20be43-6, N#Cc1cc2ccccc2c(CN(CC2)CCN2C(CCl)=O)c1], the IC50 under setting [1] is 4610 nM.

Consider `COc1cc(CN2CCN(C(=O)CCl)CC2)c2ccccc2c1` [DAR-DIA-fb20be43-7, COc1cc2ccccc2c(CN(CC2)CCN2C(CCl)=O)c1], for which the IC50 under setting [1] is 2750 nM.

On to `CC(NC(=O)CCl)c1cc(Cl)cc(-c2ccc(S(N)(=O)=O)cc2)c1` (stereo not drawn) [DAV-CRI-14a23e73-1, CC(c1cc(Cl)cc(-c(cc2)ccc2S(N)(=O)=O)c1)NC(CCl)=O], for which the IC50 under setting [1] was 466 nM.

With `O=C(Nc1cccnc1)N(CCC1CCCCC1)c1cccc(Cl)c1` [JOR-UNI-2fc98d0b-12, O=C(Nc1cnccc1)N(CCC1CCCCC1)c1cccc(Cl)c1], the IC50 under setting [1] was 3060 nM.

Turning to `O=C(NCc1ccc2c(c1)OCO2)c1nc(S(=O)(=O)Cc2ccccc2)ncc1Cl` [LON-WEI-4d77710c-10, O=C(c(nc(nc1)S(Cc2ccccc2)(=O)=O)c1Cl)NCc(cc1)cc2c1OCO2], the IC50 under setting [1] was 1400 nM.

On to `O=S(=O)(Nc1ccccc1SCc1cccc(Cl)c1F)c1cc(Cl)sc1Cl` [LON-WEI-4d77710c-64, O=S(c(cc(s1)Cl)c1Cl)(Nc(cccc1)c1SCc1cccc(Cl)c1F)=O], for which, under setting [1], the IC50 is 2230 nM.

With `O=[N+]([O-])c1cnc(Sc2nnc(-c3ccc(Cl)cc3)o2)s1` [LON-WEI-4d77710c-67, [O-][N+](c1cnc(Sc2nnc(-c(cc3)ccc3Cl)o2)s1)=O], the IC50 under setting [1] was 881 nM.

Consider `CCOC(=O)c1ccc(NC(=O)CC2SC(=O)N(c3ccccc3)C2=O)cc1` (stereo not drawn) [LON-WEI-4d77710c-74, CCOC(c(cc1)ccc1NC(CC(C(N1c2ccccc2)=O)SC1=O)=O)=O], for which the IC50 under setting [1] was 2400 nM.

For the molecule `Cc1ccccc1NC(=O)CC1SC(=O)N(c2ccccc2)C1=O` (stereo not drawn) [LON-WEI-4d77710c-75, Cc(cccc1)c1NC(CC(C(N1c2ccccc2)=O)SC1=O)=O], the IC50 under setting [1] is 443 nM.

Turning to `O=C(CCl)N1CCN(S(=O)(=O)c2c(F)cccc2F)CC1` [LON-WEI-8f408cad-2, O=C(CCl)N(CC1)CCN1S(c(c(F)ccc1)c1F)(=O)=O], the IC50 under setting [1] was 3280 nM.

Regarding `O=C(CCl)N1CCN(S(=O)(=O)c2cccs2)CC1` [LON-WEI-8f408cad-3, O=C(CCl)N(CC1)CCN1S(c1cccs1)(=O)=O], under setting [1], the IC50 was 2160 nM.

For the molecule `O=C(CCl)N1CCN(Cc2ccsc2)CC1` [LON-WEI-8f408cad-7, O=C(CCl)N1CCN(Cc2cscc2)CC1], the IC50 under setting [1] is 3500 nM.
